Converted amounts (≈) assume the structure as drawn.
Experiments:
Breast MCF-7 = test: human cancer cell growth inhibition, sulforhodamine B assay; format: cell-based; conditions: Table I, 48 hours; for GI50: Homo sapiens, MCF7, read-out: Human cancer cell line inhibition (GI50) Breast adn MCF-7
Description: (§1) Inhibition of human cancer cell growth was assessed using the National Cancer Institute's standard sulforhodamine B assay. After 48 hours, the plates were fixed with trichloracetic acid, stained with sulforhodamine B and read with an automated microplate reader. […] Inhibition of the mouse leukemia P388 cells was assessed in a 10% horse serum/Fisher medium soution for 24 hours, followed by a 48 hour incubation with serial dilutions of the compounds. Cell growth inhibition (ED50) was then calculated using a Z1 Becleman/Coulter particle counter.

Lung-NSC NCI-H460 = test: as above; format: cell-based; conditions: Table I, 48 hours; for GI50: Homo sapiens, NCI-H460, read-out: Human cancer cell line inhibition (GI50) Lung-NSC NCI-H460
Description: as §1

Pancreas BXPC-3 = test: as above; format: cell-based; conditions: Table I, 48 hours; for GI50: Homo sapiens, BXPC-3, read-out: Human cancer cell line inhibition (GI50) Pancreas-a BXPC-3
Description: as §1

Prostate DU-145 = test: as above; format: cell-based; conditions: Table I, 48 hours; for GI50: Homo sapiens, DU-145, read-out: Human cancer cell line inhibition (GI50) Prostate DU-145
Description: as §1

Colon KM20L2 = test: as above; format: cell-based; conditions: Table I, 48 hours; for GI50: Homo sapiens, KM-20L2, read-out: Human cancer cell line inhibition (GI50) Colon KM20L2
Description: as §1

CNS SF268 = test: as above; format: cell-based; conditions: Table I, 48 hours; for GI50: Homo sapiens, SF-268, read-out: Human cancer cell line inhibition (GI50) CNS SF268
Description: as §1

Cryptococcus neoformans = test: reference broth microdilution susceptibility assay; format: cell-based; conditions: Table III
Text: (§2) The halocombstatins of the present invention appear to also have antimicrobial properties. More specifically, they appear to have antifungal and/or antibacterial properties. Antimicrobial evaluation of the halocombstatins involved susceptibility testing performed by the reference broth microdilution assay. The antimicrobial activities of the halocombstatins were very similar, targeting Gram-positive bacteria and the pathogenic fungi Cryptococcus neoformans, and results are shown in Table III.
(§3) (See Pettit, G. R., et al., Antineoplastic Agents 463. Synthesis of Combretastatin A-3 Diphosphates, Anticancer Drug Design 2000, 15, 397-404.) To determine the antimicrobial activity of the present compounds, susceptibility testing was performed by the reference broth microdilution assay. (See National Committee for Clinical Laboratory Standards. Methods for Dilution Antimicrobial Susceptibility Tests for Bacteria that Grow Aerobically. Approved Standard M7-A5. Wayne, P A: NCCLS, 2000. National Committee for Clinical Laboratory Standards. Reference Method for Broth Dilution Antifungal Susceptibility Testing of Yeasts. Aproved Standard M27-A. Wayne, P A: NCCLS, 1997.) The antimicrobial activities of the halocombretastatins of the present invention were very similar, targeting Gram-positive bacteria and Cryptococcus neoformans. This is illustrated in further detail in Table III. Thus, several of the novel compounds of the present invention appear to have potential as antimicrobial agents, such as antifingals and antibacterials.

Staphylococcus aureus = test: reference broth microdilution susceptibility assay; format: cell-based; conditions: Table III
Text: as §2, §3

Micrococcus luteus = test: reference broth microdilution susceptibility assay; format: cell-based; conditions: Table III
Text: as §2, §3

Enterobacter cloacae = test: reference broth microdilution susceptibility assay; format: cell-based; conditions: Table III
Text: as §2, §3

Escherichia coli = test: reference broth microdilution susceptibility assay; format: cell-based; conditions: Table III
Text: as §2, §3

Candida albicans = test: reference broth microdilution susceptibility assay; format: cell-based; conditions: Table III
Text: as §2, §3

Enterococcus faecalis = test: reference broth microdilution susceptibility assay; format: cell-based; conditions: Table III
Text: as §2, §3

Streptococcus pneumoniae = test: reference broth microdilution susceptibility assay; format: cell-based; conditions: Table III
Text: as §2, §3

[1] = test system: Stenotrophomonas maltophilia; test: reference broth microdilution susceptibility assay; format: cell-based; conditions: Table III
Text: as §2, §3

Neisseria gonorrhoeae = test: reference broth microdilution susceptibility assay; format: cell-based; conditions: Table III
Text: as §2, §3

[2] = test system: human umbilical vein endothelial cells (HUVEC); test: HUVEC growth inhibition, sulforhodamine B assay; format: cell-based; conditions: for Relative % Growth: HUVEC; for Human Umbilical Vein Endothelial Cell (HUVEC) Inhibition Values (GI50): Table V
Description: (§4) In vitro Matrigel antiangiogenesis assays were implemented according to the Developmental Therapeutics Program NCI/NIH protocols known to one of skill in the art. Matrigel, a basement membrane matrix, was obtained from BD Biosciences. Growth inhibition and cord formation assays were Conducted using human umbilical vein endothelial cells obtained from GlycoTeCh. HUVEC cells were grown in EGM-2 medium.
The standard sulforhodamine B assay (see Cancer Cell Line Procedures above) was used to evaluate results using HUVEC cells. IC50 or ED50 (drug concentration causing 50% inhibition) was calculated from the plotted data.

[3] = test system: human umbilical vein endothelial cells (HUVEC); test: Matrigel cord formation assay; format: cell-based; set-up: key to Lengths of Cords: −: No Cords; +: Small; ++: ˜50% of Control; +++: Same as Control; conditions: 24 hours, compared to untreated controls
Description: as §4
(§5) An aliquot of sixty microliters was placed in each well of an ice-cold 96-well plate. The plates were then left for 15 minutes at room temperature, then incubated for 30 minutes at 37° C. to permit the matrigel to polymerize. Meanwhile, HUVEC cells were harvested and diluted to a concentration of 2×10^5 cells/ml. A solution of 100 μL containing the compounds to be tested was added next. After 24 hours incubation, pictures were taken for each concentration using an inverted Nikon Diaphot microscope and D100 digital camera. Drug effect was assessed, compared to untreated controls, by measuring the length of cords formed and number ofjunctions.

[4] = test system: human umbilical vein endothelial cells (HUVEC); test: Matrigel cord formation assay; format: cell-based; set-up: key: −: No Junctions; +: Few; ++: ˜50% of Control; +++: Same as Control; conditions: 24 hours, compared to untreated controls
Description: as §4, §5

Compound | melting point [°C] | Human cancer cell line inhibition (GI50) Breast adn MCF-7 (Breast MCF-7) [µg/mL] | Human cancer cell line inhibition (GI50) Lung-NSC NCI-H460 (Lung-NSC NCI-H460) [ng/mL] | Human cancer cell line inhibition (GI50) Pancreas-a BXPC-3 (Pancreas BXPC-3) [µg/mL] | Human cancer cell line inhibition (GI50) Prostate DU-145 (Prostate DU-145) [ng/mL] | Human cancer cell line inhibition (GI50) Colon KM20L2 (Colon KM20L2) [µg/mL] | Human cancer cell line inhibition (GI50) CNS SF268 (CNS SF268) [ng/mL] | Range of minimum inhibitory concentration, Cryptococcus neoformans (Cryptococcus neoformans) | Range of minimum inhibitory concentration, Staphylococcus aureus (Staphylococcus aureus) | Range of minimum inhibitory concentration, Micrococcus luteus (Micrococcus luteus) | Range of minimum inhibitory concentration, Enterobacter cloacae (Enterobacter cloacae) | Range of minimum inhibitory concentration, Escherichia coli (Escherichia coli) | Range of minimum inhibitory concentration, Candida albicans (Candida albicans) | Range of minimum inhibitory concentration, Enterococcus faecalis (Enterococcus faecalis) | Range of minimum inhibitory concentration, Streptococcus pneumoniae (Streptococcus pneumoniae) | Range of minimum inhibitory concentration, Stenotrophomonas maltophilia [1] | Range of minimum inhibitory concentration, Neisseria gonorrhoeae (Neisseria gonorrhoeae) [µg/mL] | further results
COc1ccc(/C=C\c2cc(I)c(OC)c(OC)c2)cc1C(C)=O | 103 to 104 |  |  |  |  |  |  |  |  |  |  |  |  |  |  |  |  | 
3-Fluoro-4,4′,5-trimethoy-3′-hydroxy-E-stilhene [Compound 11b] |  | 0.051 | 180 | 2.2 | 180 | 0.53 | 350 | 64 µg/mL | 32 to 64 µg/mL | 16 to 32 µg/mL | * (no inhibition at 64 μg/ml) | * (no inhibition at 64 μg/ml) | * (no inhibition at 64 μg/ml) | * (no inhibition at 64 μg/ml) | 64 µg/mL | * (no inhibition at 64 μg/ml) | 8 to 16 | 
COc1ccc(/C=C/c2cc(Cl)c(OC)c(OC)c2)cc1O [Compound 12b, 3-Chloro-4,4′,5-trimethoxy-3′-hydroxy-E-stilbene] | 138 to 140 |  |  |  |  |  |  |  |  |  |  |  |  |  |  |  |  | GI50 (Breast MCF-7): 0.041 µg/mL (≈ 0.128 µM); GI50 (Lung-NSC NCI-H460): 0.034 µg/mL (≈ 0.106 µM); GI50 (Pancreas BXPC-3): 0.59 µg/mL (≈ 1.84 µM); GI50 (Prostate DU-145): 0.038 µg/mL (≈ 0.118 µM); GI50 (Colon KM20L2): 1.4 µg/mL (≈ 4.36 µM); GI50 (CNS SF268): 0.048 µg/mL (≈ 0.15 µM)
COc1ccc(/C=C/c2cc(I)c(OC)c(OC)c2)cc1O [Compound 14b, 3-Iodo-4,4′,5-trimethoxy-3′-hydroxy-E-stilbene] | 111 to 113 |  |  |  |  |  |  | 64 µg/mL | 8 to 64 µg/mL | 4 to 8 µg/mL | * (no inhibition at 64 μg/ml) | * (no inhibition at 64 μg/ml) | * (no inhibition at 64 μg/ml) | * (no inhibition at 64 μg/ml) | * (no inhibition at 64 μg/ml) | * (no inhibition at 64 μg/ml) | 4 to 16 | GI50 (Breast MCF-7): 0.18 µg/mL (≈ 0.437 µM); GI50 (Lung-NSC NCI-H460): 0.21 µg/mL (≈ 0.509 µM); GI50 (Pancreas BXPC-3): 2.7 µg/mL (≈ 6.55 µM); GI50 (Prostate DU-145): 0.27 µg/mL (≈ 0.655 µM); GI50 (Colon KM20L2): 1.7 µg/mL (≈ 4.12 µM); GI50 (CNS SF268): 0.55 µg/mL (≈ 1.33 µM)
COc1ccc(/C=C\c2cc(I)c(OC)c(I)c2)cc1C(C)=O [Compound 22c, 3,5-diiodo-4,4′-dimethoxy-3′-acetyl-z-stilbene] | 121 to 122 |  |  |  |  |  |  |  |  |  |  |  |  |  |  |  |  | 
Sodium 3,5-diiodo-4,4′dimethoxy-z-stilbene 3′-O-phosphate [Compound T (Table Ia)] |  |  |  |  |  |  |  |  |  |  |  |  |  |  |  |  |  | Relative % Growth ([2]; 0.0001 μg/ml): >100%; Relative % Growth ([2]; 0.01 μg/ml): >100%; Relative % Growth ([2]; 0.1 μg/ml): −2%; Relative % Growth ([2]; 1 μg/ml): −7%; Human Umbilical Vein Endothelial Cell (HUVEC) Inhibition Values (GI50) [2]: 0.051 µg/mL; Lengths of Cords ([3]; 0.1 μg/ml): +; Lengths of Cords ([3]; 1 μg/ml): −; Number of junctions ([4]; 1 μg/ml): −
Sodium 3-fluoro-4,4′,5-trimethoxy-Z-stilbene 3′-O-phosphate [Compound 18a] |  | 0.0044 | 9.4 | 0.59 | 3.6 | 1.5 | 5.1 | * (no inhibition at 64 μg/ml) | * (no inhibition at 64 μg/ml) | * (no inhibition at 64 μg/ml) | * (no inhibition at 64 μg/ml) | * (no inhibition at 64 μg/ml) | * (no inhibition at 64 μg/ml) | * (no inhibition at 64 μg/ml) | * (no inhibition at 64 μg/ml) | * (no inhibition at 64 μg/ml) | 16 | 
Sodium 3-iodo-4,4′,5-trimethoxy-z-stilbene 3′-O-phosphate [Compound 20a] |  | 0.012 | 3.1 | 0.47 | 7.8 | 0.37 | 5.2 | * (no inhibition at 64 μg/ml) | * (no inhibition at 64 μg/ml) | * (no inhibition at 64 μg/ml) | * (no inhibition at 64 μg/ml) | * (no inhibition at 64 μg/ml) | * (no inhibition at 64 μg/ml) | * (no inhibition at 64 μg/ml) | * (no inhibition at 64 μg/ml) | * (no inhibition at 64 μg/ml) | 16 to 32 | Relative % Growth ([2]; 0.0001 μg/ml): 104%; Relative % Growth ([2]; 0.001 μg/ml): 5%; Relative % Growth ([2]; 0.01 μg/ml): 14%; Relative % Growth ([2]; 0.1 μg/ml): 7%; Human Umbilical Vein Endothelial Cell (HUVEC) Inhibition Values (GI50) [2]: 0.00035 µg/mL; Lengths of Cords ([3]; 0.001 μg/ml): +; Lengths of Cords ([3]; 0.01 μg/ml): −; Lengths of Cords ([3]; 0.1 μg/ml): −; Number of junctions ([4]; 0.001 μg/ml): +; Number of junctions ([4]; 0.01 μg/ml): −; Number of junctions ([4]; 0.1 μg/ml): −

Source: patent US20070167412A1, “HALOCOMBSTATINS AND METHODS OF SYNTHESIS THEREOF” (ARIZONA BOARD OF REGENTS, priority 2003, published 2007)
